In ChEMBL document CHEMBL5678809, “Preclinical characterization of GLPG0634, a selective inhibitor of JAK1, for the treatment of inflammatory diseases” (J Immunol, 2013):
pIC50: −log10 of the molar value. Activity calls are given as the source filed them. The rule behind the calls is not given here.

Columns and labels:
[1] = target: Tyrosine-protein kinase TXK (Homo sapiens) (UniProt P42681); assay: Inhibition of Txk (unknown origin) at 1 uM relative to control
[2] = target: Tyrosine-protein kinase Fer (Homo sapiens) (UniProt P16591); assay: Inhibition of Fer (unknown origin) at 1 uM relative to control
[3] = target: Protein kinase C beta type (Homo sapiens) (UniProt P05771); assay: Inhibition of PKCb (unknown origin) at 1 uM relative to control
[4] = tested on: Mus musculus; assay: Antiarthritic activity against collagen-induced arthritis DBA/1J mouse model assessed as reduction in IL-6 expression at 50 mg/kg, po measured for 4 hrs; type: functional, organism-based
[5] = Volume of distribution at steady state in CD-1 mouse at 1 mg/kg, iv measured upto 8 hrs by LC-MS analysis; type: ADME, organism-based; settings: in vivo, read-out: Vdss
[6] = target: Vascular endothelial growth factor receptor 2 (Homo sapiens) (UniProt P35968); assay: Inhibition of KDR (unknown origin) at 1 uM relative to control
[7] = target: Cyclin-dependent kinase 2 (Homo sapiens, UniProt P24941); assay: Inhibition of CDK2 (unknown origin)
[8] = tested on: Mus musculus; assay: Antiarthritic activity against collagen-induced arthritis DBA/1J mouse model assessed as reduction in infiltration of F4/80+ macrophage cells in paw at 50 mg/kg, po administered twice daily for 14 days by immunohistochemistry analysis; type: functional, organism-based; settings: time 14.0 day
[9] = target: SRSF protein kinase 3 (Homo sapiens) (UniProt Q9UPE1); assay: Inhibition of MSSK1 (unknown origin) at 1 uM relative to control
[10] = tested on: Mus musculus; assay: Antiarthritic activity against collagen-induced arthritis DBA/1J mouse model assessed as reduction in MCP-1 level in serum at 50 mg/kg, po measured for 4 hrs by luminex analysis; type: functional, organism-based
[11] = Oral bioavailability in Sprague-Dawley rat at 5 mg/kg measured upto 24 hrs by LC-MS analysis; type: ADME, organism-based; settings: in vivo
[12] = target: Dual specificity mitogen-activated protein kinase kinase 7 (Homo sapiens) (UniProt O14733); assay: Inhibition of MKK7 (unknown origin) at 1 uM relative to control
[13] = target: Serine/threonine-protein kinase Nek2 (Homo sapiens) (UniProt P51955); assay: Inhibition of NEK2 (unknown origin) at 1 uM relative to control
[14] = target: Mitogen-activated protein kinase kinase kinase kinase 2 (Homo sapiens, UniProt Q12851); assay: Inhibition of GCK (unknown origin)
Chain of Mitogen-activated protein kinase kinase kinase kinase 2 (Q12851 whole entry): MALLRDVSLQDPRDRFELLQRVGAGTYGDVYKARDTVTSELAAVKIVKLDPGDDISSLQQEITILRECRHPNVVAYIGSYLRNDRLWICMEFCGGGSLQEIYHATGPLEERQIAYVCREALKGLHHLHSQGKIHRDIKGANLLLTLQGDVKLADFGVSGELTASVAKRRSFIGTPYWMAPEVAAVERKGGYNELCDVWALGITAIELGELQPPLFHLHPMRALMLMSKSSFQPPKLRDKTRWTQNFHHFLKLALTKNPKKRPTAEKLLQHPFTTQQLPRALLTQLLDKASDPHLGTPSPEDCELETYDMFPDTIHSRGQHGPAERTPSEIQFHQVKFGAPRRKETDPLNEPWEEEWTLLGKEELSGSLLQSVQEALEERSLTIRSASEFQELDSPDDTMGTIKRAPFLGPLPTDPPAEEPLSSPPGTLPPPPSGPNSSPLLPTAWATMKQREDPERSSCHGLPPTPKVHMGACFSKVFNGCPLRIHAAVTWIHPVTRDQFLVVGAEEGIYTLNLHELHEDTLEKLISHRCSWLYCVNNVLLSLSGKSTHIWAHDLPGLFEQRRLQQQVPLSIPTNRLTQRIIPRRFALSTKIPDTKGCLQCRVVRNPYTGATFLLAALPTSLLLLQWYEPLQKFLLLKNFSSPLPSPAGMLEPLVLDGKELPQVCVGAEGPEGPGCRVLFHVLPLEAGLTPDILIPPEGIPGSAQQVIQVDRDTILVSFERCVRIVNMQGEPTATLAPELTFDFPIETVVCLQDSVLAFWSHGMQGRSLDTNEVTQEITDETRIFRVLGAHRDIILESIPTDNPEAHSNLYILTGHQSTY

[15] = tested on: Mus musculus; assay: Antiarthritic activity against collagen-induced arthritis DBA/1J mouse model assessed as MDC level in serum at 50 mg/kg, po measured for 4 hrs by luminex analysis (reference value: 463.8 +/- 32.7 ng/ml); type: functional
[16] = target: Mast/stem cell growth factor receptor Kit (Homo sapiens, UniProt P10721); assay: Inhibition of cKIT (unknown origin)
Chain of Mast/stem cell growth factor receptor Kit (P10721 whole entry): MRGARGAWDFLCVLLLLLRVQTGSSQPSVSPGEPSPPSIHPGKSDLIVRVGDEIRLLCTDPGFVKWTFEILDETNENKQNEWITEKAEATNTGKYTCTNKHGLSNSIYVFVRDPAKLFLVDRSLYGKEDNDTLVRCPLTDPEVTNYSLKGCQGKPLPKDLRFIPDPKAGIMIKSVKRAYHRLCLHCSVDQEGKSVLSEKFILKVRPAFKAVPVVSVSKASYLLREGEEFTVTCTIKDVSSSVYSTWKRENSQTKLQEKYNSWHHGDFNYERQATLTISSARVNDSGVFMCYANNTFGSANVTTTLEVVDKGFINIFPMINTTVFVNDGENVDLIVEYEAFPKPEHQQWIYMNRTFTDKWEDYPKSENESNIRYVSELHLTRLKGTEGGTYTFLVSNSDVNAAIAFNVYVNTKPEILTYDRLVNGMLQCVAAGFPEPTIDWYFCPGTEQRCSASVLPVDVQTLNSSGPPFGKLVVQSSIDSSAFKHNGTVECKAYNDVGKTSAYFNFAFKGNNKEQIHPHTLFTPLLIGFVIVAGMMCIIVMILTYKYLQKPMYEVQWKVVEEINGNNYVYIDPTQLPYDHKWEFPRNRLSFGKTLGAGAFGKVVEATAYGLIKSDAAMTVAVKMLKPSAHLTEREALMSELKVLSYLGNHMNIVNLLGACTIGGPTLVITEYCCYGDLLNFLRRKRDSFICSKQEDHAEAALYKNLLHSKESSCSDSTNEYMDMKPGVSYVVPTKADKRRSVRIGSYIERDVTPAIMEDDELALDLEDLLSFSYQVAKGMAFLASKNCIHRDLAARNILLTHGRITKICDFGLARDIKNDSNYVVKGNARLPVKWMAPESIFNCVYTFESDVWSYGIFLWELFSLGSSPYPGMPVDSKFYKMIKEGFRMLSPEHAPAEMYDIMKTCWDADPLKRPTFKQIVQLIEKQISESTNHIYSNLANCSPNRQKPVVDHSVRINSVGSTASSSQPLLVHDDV

[17] = tested on: Rattus norvegicus; assay: Antiarthritic activity against collagen-induced arthritis Dark Agouti rat model assessed as reduction in inflammatory infiltration at 1 mg/kg, po administered 3 times a week and measured on day 7; type: functional, organism-based; settings: time 7.0 day
[18] = tested on: Rattus norvegicus; assay: Antiarthritic activity against collagen-induced arthritis Dark Agouti rat model assessed as reduction in bone degradation by measuring larsen score administered 3 times a week and measured on day 7 by X-ray analysis; type: functional, organism-based; settings: dose 3.0 mg/kg, time 7.0 day
[19] = target: Homeodomain-interacting protein kinase 1 (Homo sapiens) (UniProt Q86Z02); assay: Inhibition of HIPK1 (unknown origin) at 1 uM relative to control
[20] = target: Calcium/calmodulin-dependent protein kinase type IV (Homo sapiens) (UniProt Q16566); assay: Inhibition of CaMK4 (unknown origin) at 1 uM relative to control
[21] = tested on: Rattus norvegicus; assay: Antiarthritic activity against collagen-induced arthritis Dark Agouti rat model assessed as reduction in clinical score at 0.1 mg/kg, po measured after day 5; type: functional, organism-based; settings: time 5.0 day
[22] = target: Tyrosine-protein kinase BTK (Homo sapiens, UniProt Q06187); assay: Inhibition of BTK (unknown origin)
[23] = tested on: Mus musculus; assay: Antiarthritic activity against collagen-induced arthritis DBA/1J mouse model assessed as MIP-1beta level in serum at 50 mg/kg, po measured for 4 hrs by luminex analysis (reference value: 203.4= +/- 20.8 ng/ml); type: functional
[24] = target: Serine/threonine-protein kinase 33 (Homo sapiens) (UniProt Q9BYT3); assay: Inhibition of STK33 (unknown origin) at 1 uM relative to control
Chain of Serine/threonine-protein kinase 33 (Homo sapiens) (Q9BYT3 whole entry, looked up): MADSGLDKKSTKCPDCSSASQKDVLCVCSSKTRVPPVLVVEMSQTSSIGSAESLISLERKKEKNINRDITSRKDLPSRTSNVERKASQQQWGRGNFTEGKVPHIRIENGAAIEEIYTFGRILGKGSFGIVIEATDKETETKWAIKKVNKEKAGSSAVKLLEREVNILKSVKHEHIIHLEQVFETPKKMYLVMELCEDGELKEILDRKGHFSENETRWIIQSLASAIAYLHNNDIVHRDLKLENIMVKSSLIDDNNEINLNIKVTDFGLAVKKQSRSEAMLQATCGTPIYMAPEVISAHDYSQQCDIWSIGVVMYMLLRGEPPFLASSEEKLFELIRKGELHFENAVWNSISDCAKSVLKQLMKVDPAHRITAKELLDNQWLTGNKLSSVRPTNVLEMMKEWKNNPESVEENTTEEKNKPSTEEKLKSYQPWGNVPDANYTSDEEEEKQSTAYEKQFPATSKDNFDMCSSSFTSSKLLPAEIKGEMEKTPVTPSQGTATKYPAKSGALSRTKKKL

[25] = target: Tyrosine-protein kinase Lyn (Homo sapiens, UniProt P07948); assay: Inhibition of LYNA (unknown origin)
[26] = target: Interleukin-1 receptor-associated kinase 1 (Homo sapiens) (UniProt P51617); assay: Inhibition of IRAK1 (unknown origin) at 1 uM relative to control
[27] = target: Vascular endothelial growth factor receptor 1 (Homo sapiens, UniProt P17948); assay: Inhibition of Flt1 (unknown origin)
Chain of Vascular endothelial growth factor receptor 1 (P17948 whole entry): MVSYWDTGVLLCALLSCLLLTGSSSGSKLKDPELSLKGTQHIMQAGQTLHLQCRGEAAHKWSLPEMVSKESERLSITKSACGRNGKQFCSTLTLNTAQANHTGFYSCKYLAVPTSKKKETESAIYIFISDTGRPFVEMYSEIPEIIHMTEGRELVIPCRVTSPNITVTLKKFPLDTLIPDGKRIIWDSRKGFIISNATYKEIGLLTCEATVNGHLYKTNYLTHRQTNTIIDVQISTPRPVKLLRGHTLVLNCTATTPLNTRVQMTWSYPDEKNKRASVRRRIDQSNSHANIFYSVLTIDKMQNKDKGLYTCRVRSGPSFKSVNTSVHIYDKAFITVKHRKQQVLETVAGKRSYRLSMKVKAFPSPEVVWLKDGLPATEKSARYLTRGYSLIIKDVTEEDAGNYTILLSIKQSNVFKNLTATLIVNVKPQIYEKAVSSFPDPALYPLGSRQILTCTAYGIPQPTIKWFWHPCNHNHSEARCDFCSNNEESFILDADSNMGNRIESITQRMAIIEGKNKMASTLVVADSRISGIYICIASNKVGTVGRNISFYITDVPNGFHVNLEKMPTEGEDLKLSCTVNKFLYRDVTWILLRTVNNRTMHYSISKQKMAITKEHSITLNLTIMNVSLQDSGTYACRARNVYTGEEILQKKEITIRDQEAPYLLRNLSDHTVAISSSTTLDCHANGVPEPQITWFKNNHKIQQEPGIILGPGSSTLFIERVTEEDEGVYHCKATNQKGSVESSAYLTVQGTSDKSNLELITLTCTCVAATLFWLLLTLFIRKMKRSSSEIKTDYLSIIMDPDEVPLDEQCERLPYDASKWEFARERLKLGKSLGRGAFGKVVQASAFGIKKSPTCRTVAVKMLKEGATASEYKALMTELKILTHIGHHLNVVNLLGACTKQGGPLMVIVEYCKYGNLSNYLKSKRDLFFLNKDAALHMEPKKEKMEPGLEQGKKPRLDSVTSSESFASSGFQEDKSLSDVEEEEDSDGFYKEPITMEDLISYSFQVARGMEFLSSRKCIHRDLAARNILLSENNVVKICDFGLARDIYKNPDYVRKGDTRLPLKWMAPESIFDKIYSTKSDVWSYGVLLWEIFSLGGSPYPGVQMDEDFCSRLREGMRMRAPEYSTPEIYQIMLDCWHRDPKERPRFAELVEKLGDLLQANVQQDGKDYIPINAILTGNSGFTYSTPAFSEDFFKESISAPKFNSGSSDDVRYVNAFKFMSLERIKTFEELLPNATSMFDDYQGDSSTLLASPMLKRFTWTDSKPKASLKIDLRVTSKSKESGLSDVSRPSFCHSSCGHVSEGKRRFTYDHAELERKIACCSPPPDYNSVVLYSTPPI

[28] = target: Serine/threonine-protein kinase N2 (Homo sapiens) (UniProt Q16513); assay: Inhibition of PRK2 (unknown origin) at 1 uM relative to control
[29] = Tmax in Dark Agouti rat at 3 to 30 mg/kg, po; type: ADME, organism-based; settings: in vivo, dose 3-30 mg/kg
[30] = tested on: Mus musculus; assay: Antiarthritic activity against collagen-induced arthritis DBA/1J mouse model assessed as reduction in XCL1 level in serum at 50 mg/kg, po measured for 4 hrs by luminex analysis; type: functional, organism-based
[31] = target: CDK7/Cyclin H/MNAT1 (Homo sapiens) (UniProt P51946+P50613+P51948); assay: Inhibition of CDK7/cyclinH/MAT1 (unknown origin) at 1 uM relative to control; type: protein-complex assay
[32] = target: Testis-specific serine/threonine-protein kinase 1 (Homo sapiens) (UniProt Q9BXA7); assay: Inhibition of TSSK1 (unknown origin) at 1 uM relative to control
Chain of Testis-specific serine/threonine-protein kinase 1 (Homo sapiens) (Q9BXA7 whole entry): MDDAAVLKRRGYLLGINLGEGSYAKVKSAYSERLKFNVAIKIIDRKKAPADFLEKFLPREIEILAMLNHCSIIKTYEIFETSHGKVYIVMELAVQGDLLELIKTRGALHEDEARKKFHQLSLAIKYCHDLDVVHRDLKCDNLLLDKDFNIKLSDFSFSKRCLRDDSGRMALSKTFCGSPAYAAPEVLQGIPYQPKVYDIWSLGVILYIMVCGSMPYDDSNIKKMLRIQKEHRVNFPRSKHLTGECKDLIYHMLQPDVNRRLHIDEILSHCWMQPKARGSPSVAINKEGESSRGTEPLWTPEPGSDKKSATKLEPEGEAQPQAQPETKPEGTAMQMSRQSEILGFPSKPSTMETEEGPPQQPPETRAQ

[33] = tested on: Mus musculus; assay: Antiarthritic activity against collagen-induced arthritis DBA/1J mouse model assessed as KC/GRO level in serum at 50 mg/kg, po measured for 4 hrs by luminex analysis (reference value: 73.6 +/- 18.6 ng/ml); type: functional
[34] = target: Serine/threonine-protein kinase Nek11 (Homo sapiens) (UniProt Q8NG66); assay: Inhibition of NEK11 (unknown origin) at 1 uM relative to control
[35] = target: Platelet-derived growth factor receptor alpha (Homo sapiens) (UniProt P16234); assay: Inhibition of PDGFR2 (unknown origin) at 1 uM relative to control
[36] = tested on: Rattus norvegicus; assay: Antiarthritic activity against collagen-induced arthritis Dark Agouti rat model assessed as reduction in clinical score at 1 to 10 mg/kg, po measured after day 5; type: functional, organism-based; settings: dose 1-10 mg/kg, time 5.0 day
[37] = Half life in Dark Agouti rat at 3 to 30 mg/kg, po; type: ADME, organism-based; settings: in vivo, dose 3-30 mg/kg
[38] = target: Serine/threonine-protein kinase TBK1 (Homo sapiens, UniProt Q9UHD2); assay: Inhibition of TBK1 (unknown origin)
[39] = target: Mitogen-activated protein kinase 12 (Homo sapiens, UniProt P53778); assay: Inhibition of MAPK12 (unknown origin)
Chain of Mitogen-activated protein kinase 12 (P53778 whole entry): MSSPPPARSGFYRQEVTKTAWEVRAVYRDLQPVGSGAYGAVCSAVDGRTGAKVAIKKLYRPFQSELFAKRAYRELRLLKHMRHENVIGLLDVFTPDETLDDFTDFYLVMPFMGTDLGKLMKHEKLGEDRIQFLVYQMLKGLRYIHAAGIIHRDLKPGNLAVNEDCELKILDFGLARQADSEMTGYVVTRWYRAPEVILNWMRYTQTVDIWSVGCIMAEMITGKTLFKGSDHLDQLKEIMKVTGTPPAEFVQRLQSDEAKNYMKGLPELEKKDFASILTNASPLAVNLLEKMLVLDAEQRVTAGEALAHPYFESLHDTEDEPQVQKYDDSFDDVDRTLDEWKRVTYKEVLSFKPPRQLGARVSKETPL

[40] = target: NUAK family SNF1-like kinase 1 (Homo sapiens) (UniProt O60285); assay: Inhibition of ARK5 (unknown origin) at 1 uM relative to control

Chain of Tyrosine-protein kinase TXK (Homo sapiens) (P42681 whole entry): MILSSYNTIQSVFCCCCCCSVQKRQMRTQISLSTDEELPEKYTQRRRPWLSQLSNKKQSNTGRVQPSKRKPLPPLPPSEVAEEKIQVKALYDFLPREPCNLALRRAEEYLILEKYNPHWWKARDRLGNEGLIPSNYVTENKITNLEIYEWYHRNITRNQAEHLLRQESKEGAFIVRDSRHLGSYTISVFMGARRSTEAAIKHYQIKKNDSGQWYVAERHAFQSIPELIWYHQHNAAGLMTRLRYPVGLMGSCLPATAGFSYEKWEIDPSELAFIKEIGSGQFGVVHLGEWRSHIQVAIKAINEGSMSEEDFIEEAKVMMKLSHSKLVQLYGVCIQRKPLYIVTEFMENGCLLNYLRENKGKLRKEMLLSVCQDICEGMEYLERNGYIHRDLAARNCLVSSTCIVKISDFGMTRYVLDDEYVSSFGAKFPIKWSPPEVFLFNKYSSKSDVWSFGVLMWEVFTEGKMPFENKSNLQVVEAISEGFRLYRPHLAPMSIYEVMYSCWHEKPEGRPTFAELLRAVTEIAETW

inhibition [1]: 14%
inhibition [2]: -5%
inhibition [3]: -2%
Vd [5]: 6 L/kg
inhibition [6]: 28%
pIC50 [7]: < 5.00
inhibition [9]: 2%
bioavailability [11]: 45%
inhibition [12]: 13%
inhibition [13]: -10%
pIC50 [14]: < 5.00
pIC50 [16]: < 5.00
inhibition [19]: -8%
inhibition [20]: -5%
pIC50 [22]: < 5.00
inhibition [24]: -8%
pIC50 [25]: < 5.00
inhibition [26]: 2%
pIC50 [27]: 5.88
inhibition [28]: -8%
Tmax [29]: ~1 h
inhibition [31]: 12%
inhibition [32]: 5%
inhibition [34]: -2%
inhibition [35]: -10%
half-life [37]: ~4 h
pIC50 [38]: 5.75
pIC50 [39]: < 5.00
inhibition [40]: 1%
Compound: O=C(Nc1nc2cccc(-c3ccc(CN4CCS(=O)(=O)CC4)cc3)n2n1)C1CC1 [FILGOTINIB]
Activity [4]: Active
Activity [8]: Active
Activity [10]: Active
Activity [15]: 372.4 ng/mL
Activity [17]: Active
Activity [18]: Dose-Dependent Effect
Activity [21]: Active
Activity [23]: 143 ng/mL
Activity [30]: Active
Activity [33]: 33.6 ng/mL
Activity [36]: Active
